From ChEMBL document CHEMBL1129412, “Computation of brain-blood partitioning of organic solutes via free energy calculations” (J Med Chem, 1996)

Assay: logBB, log(C brain / C blood)
Settings: blood

Structure (SMILES)	Kp
FC(F)OC(F)(F)C(F)Cl (stereo not drawn)	1.74
FC(Br)C(F)(F)F (stereo not drawn)	1.86
CN1Cc2c(-c3noc(C(C)(O)CO)n3)ncn2-c2cccc(Cl)c2C1=O (stereo not drawn)	0.0151
c1ccccc1 [BENZENE]	2.34
CCC(C)=O [BUTANONE]	0.832
NC(=O)N1c2ccccc2C=Cc2ccccc21 [CARBAMAZEPINE]	1
C=COCC(F)(F)F [FLUROXENE]	1.35
FC(F)(F)C(Cl)Br (stereo not drawn) [HALOTHANE]	2.24
CCCCCC [HEXANE]	6.31
FC(F)OC(Cl)C(F)(F)F (stereo not drawn) [ISOFLURANE]	2.63
CC1CCCC1 [METHYLCYCLOPENTANE]	8.51
Cc1ccccc1 [TOLUENE]	2.34
CC(Cl)(Cl)Cl [TRICHLOROETHANE]	2.51
ClC=C(Cl)Cl [TRICHLOROETHYLENE]	2.19

The next lines start with the values.

Kp	Structure (SMILES)
7.94	CCCC(C)CC (stereo not drawn)
10.2	CCC(C)CC
0.692	CCO [ALCOHOL]
6.46	CCCCCCC [HEPTANE]
0.708	CC(C)O [ISOPROPYL ALCOHOL]

Same assay, conditions: brain / blood

Structure (SMILES)	Kp
FC(F)(F)CCl	1.2
CN1Cc2c(-c3noc(C(C)(C)O)n3)ncn2-c2cccc(Cl)c2C1=O	0.0457
CC(C)c1nc(-c2ncn3c2CN(C)C(=O)c2c(Cl)cccc2-3)no1	0.501
NC(=O)N1c2ccccc2C2OC2c2ccccc21 (stereo not drawn) [CARBAMAZEPINE EPOXIDE]	0.457
C [METHANE]	1.1
N#N [NITROGEN]	1.07
CCCCC [PENTANE]	5.75

More lines, now with the values ahead:

Kp	Structure (SMILES)
11	CCC(C)(C)C
9.33	CCCC(C)C
0.537	CN(C)Cc1ccc(-c2cccc(Nc3[nH]ccc3[N+](=O)[O-])c2)o1
0.676	CC(C)CO [ISOBUTANOL]

Assay: The ratio of brain-blood partitioning, (C brain / C blood).
Format: ADME, tissue-based
Settings: not given

Structure (SMILES)	Kp
CN1Cc2c(-c3noc(C(C)(O)CO)n3)ncn2-c2cccc(Cl)c2C1=O (stereo not drawn)	0.015
CN1Cc2c(-c3noc(C(C)(C)O)n3)ncn2-c2cccc(Cl)c2C1=O	0.046
CC(C)c1nc(-c2ncn3c2CN(C)C(=O)c2c(Cl)cccc2-3)no1	0.5
CN(C)CCC=C1c2ccccc2CCc2ccccc21 [AMITRIPTYLINE]	9.6
NC(=O)N1c2ccccc2C2OC2c2ccccc21 (stereo not drawn) [CARBAMAZEPINE EPOXIDE]	0.46
NC(=O)N1c2ccccc2C=Cc2ccccc21 [CARBAMAZEPINE]	1

Assay: logBB, log(C brain/C blood)
Settings: blood

Structure (SMILES)	Kp
O=C(NCCCOc1cccc(CN2CCCCC2)c1)c1ccccc1	0.575
Cc1csc(N=C(N)N)n1	0.912
c1ccc(NCCCOc2cccc(CN3CCCCC3)c2)nc1	4.9
CN(C)Cc1ccnc(-c2cccc(Nc3[nH]ccc3[N+](=O)[O-])c2)c1	0.525
c1cc(CN2CCCCC2)cc(OCCCNc2nccs2)c1	2.75
CC(=O)NCCCOc1cccc(CN2CCCCC2)c1	0.347
CC(=O)Nc1cccc(-c2csc(N=C(N)N)n2)c1	0.0269
CN/C(=N/CCSCc1nc[nH]c1C)NC#N [CIMETIDINE]	0.038

Further lines, results first:

Kp	Structure (SMILES)
0.186	CN(C)Cc1ccc(CSCCNc2[nH]cc(Cc3ccccc3)c2[N+](=O)[O-])o1
0.00708	CC/N=C(\NC#N)NCCSCc1ncccc1Br
0.01	COc1cccnc1CCCCNc1ncc(Cc2ccc(C)nc2)c(=O)[nH]1 [ICOTIDINE]
6.76	CN(C)CCCN1c2ccccc2CCc2ccccc21 [IMIPRAMINE]
3.09	COc1ccc(CN(CCN(C)C)c2ccccn2)cc1 [PYRILAMINE]

Same assay, conditions: brain / blood

Structure (SMILES)	Kp
O=[N+]([O-])c1c(Cc2ccccc2)c[nH]c1NCCSCc1ccccn1	0.759
NC(N)=Nc1nc(-c2ccccc2)cs1	0.661
O=[N+]([O-])c1cc[nH]c1NCCSCc1ncccc1Br	0.214
N=C(N)Nc1nc(-c2cccc(N)c2)cs1	0.0708
C/N=C(\NC#N)Nc1cccc(-c2csc(N=C(N)N)n2)c1	0.0288

More lines, now with the values ahead:

Kp	Structure (SMILES)
0.0501	CN(C)Cc1ccc(CSCCNc2ncc(Cc3ccc4ccccc4c3)c(O)n2)o1
0.0759	CN(C)Cc1ccc(CSCCNc2[nH]ccc2[N+](=O)[O-])o1
0.0676	CN(C)c1cc(-c2n[nH]c(N)n2)ccn1
0.0871	Cc1ccc(Cc2c[nH]c(NCCSCc3ccc(CN(C)C)o3)nc2=O)cn1 [LUPITIDINE]
